Data as given in patent US20110207944A1, “VITAMIN D3 LACTAM DERIVATIVE” (TEIJIN PHARMA LIMITED, priority 2008, published 2011).

How the values were obtained:
human VDR = target: T1, human VDR (Homo sapiens, UniProt P11473); test: Vitamin D3 receptor-antagonist activity: human osteocalcin promoter luciferase reporter in HOS cells transfected with human VDR and human RXR; format: cell-based; settings: for Antagonist specific activity against TEI-9647 (%): IC50 of test compound with respect to IC50 of TEI-9647 in each experiment; for IC50: luciferase activity in HOS cells, with 1α,25-dihydroxyvitamin D3 1×10^−8 M, 24 hours
T1 construct: expressed in transfected cells; host or cells: HOS cells (human osteosarcoma, ATCC), pcDNA3 expression vector, Lipofectamine 2000
T1 sequence (P11473 1-427): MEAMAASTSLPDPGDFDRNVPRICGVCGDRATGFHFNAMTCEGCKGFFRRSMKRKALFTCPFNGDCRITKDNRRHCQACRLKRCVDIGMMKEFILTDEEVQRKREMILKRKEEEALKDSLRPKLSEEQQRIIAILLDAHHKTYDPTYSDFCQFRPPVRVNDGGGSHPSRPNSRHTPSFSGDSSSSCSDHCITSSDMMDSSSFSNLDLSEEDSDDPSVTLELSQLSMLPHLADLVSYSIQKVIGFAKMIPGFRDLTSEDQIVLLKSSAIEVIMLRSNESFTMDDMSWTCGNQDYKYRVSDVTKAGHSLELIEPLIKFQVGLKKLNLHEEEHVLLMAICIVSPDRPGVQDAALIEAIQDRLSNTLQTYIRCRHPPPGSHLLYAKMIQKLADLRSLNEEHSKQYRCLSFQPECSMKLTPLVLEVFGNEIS
From the text: Vitamin D3 Receptor-Antagonist Activity in Terms of the Transcription Activity in Human Osteocalcin by 1α,25-dihydroxyvitamin D3 as a Marker
(1) A pGL3 vector (Promega Corp.) was used as a reporter vector. The promoter sequence of the human osteocalcin gene, which was obtained by a known method (Ozono et al., J. Biol. Chem., 265:21881-21888, 1990), was cloned from cDNA acquired from HOS cells (obtained from ATCC) and inserted into the upstream of the luciferase gene on the reporter vector. An expression vector was constructed by inserting a DNA sequence encoding human VDR and human RXR into a pcDNA3 vector (Invitrogen Corp). The HOS cells were incubated in a DMEM medium supplemented with 10% FBS at 37° C. in the presence of 5% CO2, and subcultivated every 2 or 3 days.
(2) Cells being subcultivated were collected by centrifugation and re-suspended in a serum and phenol red-free DMEM medium at 4×10^5 cells/mL. The re-suspension of cells was plated in a 96 well plate at 0.1 mL/well. In this system, various vectors described in (1) were added at 0.05 mL/well with Lipofectamin 2000 (Invitrogen Corp.). After the incubation for 3 hours at 37° C., 1α,25-dihydroxyvitamin D3 and the compounds of the present invention in various concentrations or TEI-9647 (note) as a control (the final concentration: 1×10^−8 M for 1α,25-dihydroxyvitamin D3, and 1×10^−6M and 1×10^−12M for the compounds of the present invention and TEI-9647) were added to each well. After incubation at 37° C. for 24 hours, the medium was removed, the cells were washed with PBS(−) once, and measured for the luciferase activity using a Dual Glo-Luciferase Assay kit (Promega Corp.) by luminometer (Berthold Corp.). The resulting luciferase values were plotted against the concentration of the test compounds and IC50 was determined as the concentration of the test compound at which the luciferase value was inhibited by 50%. Furthermore, to compare the intensities of activity among experiments, the IC50 value of the test compounds with respect to the IC50 value of […] in each experiment was calculated as the antagonist specific activity (%) against TEI-9647.

HL-60 cells = test: Vitamin D3 receptor-antagonist effect: inhibition of 1α,25-dihydroxyvitamin D3-induced differentiation of HL-60 (NBT reduction activity); format: cell-based; settings: Homo sapiens, 96 h; NBT-positive HL-60 cells, co-treatment with 1α,25-dihydroxyvitamin D3 1×10^−8 M, 4 days
From the text: Vitamin D3 Receptor-Antagonist Effect in Terms of Cellular Differentiation-Inducing Activity of 1α,25-dihydroxyvitamin D3 in HL-60 as a Marker
(1) A HL-60 cell line purchased from a cell bank (Japanese Cancer Research Resource Bank, Cell number: JCRB0085) was used. The cells were frozen for storage as a frozen storage stock to prevent cell characteristic changes due to successive cultivations. The cells were defrosted prior to the initiation of the experiment, and those which started successive culturing were used in the experiment. Cells subcultured for one month to a half year were used for the experiment. The successive culturing was carried out by diluting the cells at a ratio of about 1/100 (1-2×10^4 cells/mL) in a fresh medium after the collection of cells from a cell suspension by centrifugation. RPMI-1640 supplemented with 10% fetal bovine serum was used as the culture medium.
(2) The subcultured cells by the procedure described in (1) were collected by centrifugation and re-suspended in the medium at 5×10^3 cells/mL, and the cells were plated into a 24-well culture dish at 1 mL/well. To this system, a solution of 1α,25-dihydroxyvitamin D3 at a concentration of 1×10^−5 M and the compounds of the present invention in a range of […] to 3×10^−3 M in ethanol, respectively, were added at 1 μL per well (the final concentration: 1×10^−8 M for 1α,25-dihydroxyvitamin D3, and 1×10^−9 M to 3×10^−6 M for the compounds of the present invention). Ethanol was added at 1 μL per well as a control. After the plate was incubated at 37° C. for 4 days in the presence of 5% CO2, the cells were separated and collected by centrifugation.
(3) The induction of nitroblue tetrazolium (hereinafter NBT) reduction activity was used as a marker for cell differentiation-inducing activity of HL-60 cells. The measurement of NBT reduction activity was carried out according to the following procedure. Specifically, cells collected by centrifugation were re-suspended in a fresh medium. Then 0.1% of NBT and 12-O-tetradecanoylphorbor-13-acetate at a final concentration of 100 ng/mL were added to the cell suspension and the mixture was incubated at 37° C. for 25 minutes. Then the cytospin smears were prepared and stained with Kernechtrot after air-drying. The ratio of positive cells expressing NBT reduction activity was determined under optical microscopy. Percentage ratios of the ratio of NBT-positive cells in a simultaneous treatment with 1α,25-dihydroxyvitamin D3 (1×10^−8 M) and a compound of the present invention (1×10^−9M and 3×10^−6 M) over the ratio of the NBT-positive cells in a single treatment with 1α,25-dihydroxyvitamin D3 (1×10^−8 M) were plotted against the treating concentration of the compounds of the present invention. […]

[1] = target: T2, intracellular 1α,25-dihydroxyvitamin D3 receptor protein in chick intestinal mucous membrane (Gallus gallus, UniProt O42392); test: Binding affinity to intracellular vitamin D3 receptor (VDR) in chick intestinal mucous membrane, [3H]1α,25-dihydroxyvitamin D3 competition; settings: ratio of IC50 relative to IC50 of 1α,25-dihydroxyvitamin D3, 25° C., 1 hour
T2 construct: The intracellular 1α,25-dihydroxyvitamin D3 receptor protein in chick intestinal mucous membrane (0.2 mg); from tissue; host or cells: chick intestinal mucous membrane
T2 sequence (O42392 1-451): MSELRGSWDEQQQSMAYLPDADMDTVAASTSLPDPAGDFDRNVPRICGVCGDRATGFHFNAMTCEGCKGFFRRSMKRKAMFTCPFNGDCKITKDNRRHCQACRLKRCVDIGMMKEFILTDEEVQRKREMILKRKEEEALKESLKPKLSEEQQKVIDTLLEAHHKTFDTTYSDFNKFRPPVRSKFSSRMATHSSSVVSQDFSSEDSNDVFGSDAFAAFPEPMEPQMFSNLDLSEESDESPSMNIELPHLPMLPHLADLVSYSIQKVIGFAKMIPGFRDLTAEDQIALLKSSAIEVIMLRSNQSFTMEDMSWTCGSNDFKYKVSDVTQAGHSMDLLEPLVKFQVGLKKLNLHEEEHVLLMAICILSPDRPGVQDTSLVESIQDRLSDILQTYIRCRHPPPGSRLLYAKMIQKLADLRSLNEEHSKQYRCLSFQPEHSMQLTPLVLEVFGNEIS
Experimental: Binding Affinity to Intracellular Vitamin D3 Receptor (VDR) in Chick Intestinal Mucous Membrane
This binding affinity was assayed according to the method described by Ishizuka, et al. (Steroids, 37:33-43, 1982). Specifically, a solution of [26, 27-methyl-^3H]1α,25-dihydroxyvitamin D3 (15,000 dpm, 180 Ci/mmol) in ethanol (10 μL) and a solution of various concentrations of the compounds of the present invention in ethanol (40 μL) were added into a polypropylene tube (12×75 mm). The intracellular 1α,25-dihydroxyvitamin D3 receptor protein in chick intestinal mucous membrane (0.2 mg) and gelatin (1 mg) were dissolved in 1 mL of phosphate buffer (pH 7.4), the solution was added into the tube, and the mixture was allowed to react at 25° C. for 1 hour. To the tube, a 40% polyethylene glycol 6000 solution (1 mL) was added and the mixture was vigorously stirred. Then the tube was centrifuged at 2260×g at 4° C. for 60 minutes. The bottom of the tube containing precipitate was cut off by a cutter knife and was placed in a liquid scintillation vial, dioxane scintillator (10 mL) was added thereto and the radioactivity of the precipitate was measured by a liquid scintillation counter. The measured values were plotted against the concentration of the test compounds, and IC50 (the concentration of the test compounds at which binding to the receptor was inhibited by 50%) was determined. The ratios of the IC50 of the compounds of the present invention over the IC50 of 1α,25-dihydroxyvitamin D3 were calculated as the VDR affinity of the compounds of the present invention (%).

[2] = target: T3, Human Vitamin D3 Receptor (VDR) (Homo sapiens, UniProt P11473); test: Binding affinity to human vitamin D3 receptor (Polarscreen Vitamin D Receptor Competitor assay, Red; fluorescence polarization); settings: ratio of IC50 relative to IC50 of 1α,25-dihydroxyvitamin D3
T3 construct: purchased Invitrogen Corporation
T3 sequence (P11473 1-427): T1 sequence (P11473 1-427)
Experimental: Binding Affinity to Human Vitamin D3 Receptor (VDR) This binding affinity was assessed by a VDR affinity measurement kit (Polarscreen™ Vitamin D Receptor Competitor assay, Red; Invitrogen Corporation). The compounds of the present invention or 1α,25-dihydroxyvitamin D3 at various concentrations in DTT-containing buffer (pH 7.5) were mixed with fluorescence-labeled VDR ligand-human VTR complex in DTT-containing buffer (pH 7.5). The degree of polarization of the resulting solution was measured after the incubation of the solution at room temperature. The polarization values were plotted against the concentration of the test compounds, IC50 (the concentration of the test compounds at which the polarized value is reduced to 50%) was determined.

Antagonist specific activity against TEI-9647 (%) (human VDR) | IC50 (human VDR) [nM] | IC50 (HL-60 cells) [nM] | VDR affinity (%) [1] [%] | VDR affinity (%) [2] [%] | SMILES
9.8 | 95.8 |  |  |  | C=C1/C(=C\C=C2/CCC[C@]3(C)[C@@H]([C@H](C)CC4CC(C)(O)C(=O)N4Cc4cc(OCC)cc(OCC)c4)CC[C@@H]23)C[C@@H](O)[C@H](OCCCO)[C@@H]1O (stereo partly drawn) [Compound No. 43c, 2α-(3-hydroxypropoxy)-1α,25-dihydroxyvitamin D3-26,23-lactam-N-(3,5-diethoxybenzyl)]
 |  |  |  | 31 | C=C1/C(=C\C=C2/CCC[C@]3(C)[C@@H]([C@H](C)CC4CC(C)(O)C(=O)N4Cc4cc(OCC)cc(OCC)c4)CC[C@@H]23)C[C@@H](O)[C@H](C)[C@@H]1O (stereo partly drawn) [Compound No. 41a, 2α-methyl-1α,25-dihydroxyvitamin D3-26,23-lactam-N-(3,5-diethoxybenzyl)]
17.8 | 52.7 |  |  | 30 | C=C1/C(=C\C=C2/CCC[C@]3(C)[C@@H]([C@H](C)CC4CC(C)(O)C(=O)N4Cc4cc(OCC)cc(OCC)c4)CC[C@@H]23)C[C@@H](O)[C@H](C)[C@@H]1O (single isomer, unassigned) [Compound No. 41c, 2α-methyl-1α,25-dihydroxyvitamin D3-26,23-lactam-N-(3,5-diethoxybenzyl)]

Continued, compound first:

SMILES | Antagonist specific activity against TEI-9647 (%) (human VDR) | IC50 (human VDR) [nM] | IC50 (HL-60 cells) [nM] | VDR affinity (%) [1] [%] | VDR affinity (%) [2] [%]
C=C1/C(=C\C=C2/CCC[C@]3(C)[C@@H]([C@H](C)CC4CC(C)(O)C(=O)N4CCc4ccccc4)CC[C@@H]23)C[C@@H](O)[C@H](C)[C@@H]1O (stereo partly drawn) [Compound No. 11a, 2α-methyl-1α,25-dihydroxyvitamin D3-26,23-lactam-N-(2-phenethyl)] | 90.5 | 27.5 | 16 | 50 | 
C=C1/C(=C\C=C2/CCC[C@@]3(C)C2CC[C@@H]3[C@H](C)CC2CC(C)(O)C(=O)N2Cc2cc(OCC)cc(OCC)c2)C[C@@H](O)[C@H](CCCO)[C@@H]1O (stereo partly drawn) [Compound No. 42c, 2α-(3-hydroxypropyl)-1α,25-dihydroxyvitamin D2-26,23-lactam-N-(3,5-diethoxybenzyl)] | 6.1 | 75 |  |  | 
C=C1/C(=C\C=C2/CCC[C@]3(C)[C@@H]([C@H](C)C[C@H]4C[C@](C)(O)C(=O)N4CCc4ccccc4)CC[C@@H]23)C[C@@H](O)[C@H](OCCCO)[C@@H]1O [Compound No. 13a, 2α-(3-hydroxypropoxy)-1α,25-dihydroxyvitamin D3-26,23-lactam-N-(2-phenethyl)] | 29.9 | 83.3 | 52 | 20 | 
C=C1/C(=C\C=C2/CCC[C@]3(C)[C@@H]([C@H](C)C[C@H]4C[C@](C)(O)C(=O)N4CCc4ccccc4)CC[C@@H]23)C[C@@H](O)[C@H](CCCO)[C@@H]1O [Compound No. 12a, 2α-(3-hydroxypropyl)-1α,25-dihydroxyvitamin D3-26,23-lactam-N-(2-phenethyl)] | 143.1 | 17.4 | 10 | 222 | 
C=C1/C(=C\C=C2/CCC[C@]3(C)[C@@H]([C@H](C)CC4CC(C)(O)C(=O)N4CCc4ccccc4)CC[C@@H]23)C[C@@H](O)[C@H](CCCO)[C@@H]1O (stereo partly drawn) [Compound No. 12b, 2α-(3-hydroxypropyl)-1α,25-dihydroxyvitamin D3-26,23-lactam-N-(2-phenethyl)] |  |  | 170 |  | 
